Species on record: Rattus norvegicus
Experiment: Open TG-GATES - Regimen: Single
Format: toxicity, organism-based, Sprague-Dawley
Design: regimen Single, gender Male, age 6 weeks
Details: in vivo, po, route gavage; for APTT / Bas / Eos / Fbg / Hb / Ht / Lym / MCH / MCHC / Mono / Neu / PT / Plat / RBC / Ret / WBC / MCV: tissue Blood; for KIDNEY_L / KIDNEY_R / KIDNEY_TOTAL: tissue Kidney; for LIVER: tissue Liver; for ALP / ALT / AST / BUN / CRE / Ca / Cl / DBIL / GLC / IP / K / LDH / Na / PL / RALB / TBIL / TC / TG / TP / gamma-GTP: tissue Plasma
[1] = 0 mg/kg, 3 h, dose level Control
[2] = 0 mg/kg, 6 h, dose level Control
[3] = 0 mg/kg, 9 h, dose level Control
[4] = 0 mg/kg, 24 h, dose level Control
[5] = 300 mg/kg, 24 h, dose level Low

## CCOc1ccc(NC(C)=O)cc1 [PHENACETIN]
[1]
  TERMINAL_BW: 210.2 g
  APTT: 17.4 s
  Bas: 0%
  Eos: 0.6%
  Fbg: 292 mg/dL
  Hb: 13.3 g/dL
  Ht: 40.2%
  Lym: 78.2%
  MCH: 20.7 pg
  MCHC: 33%
  Mono: 3%
  Neu: 17.8%
  PT: 13.7 s
  Plat: 114.8 x10_4/uL
  RBC: 641.4 x10_4/ul
  Ret: 8.1%
  WBC: 96.3 x10_2/uL
  KIDNEY_L: 0.9 g
  KIDNEY_R: 0.9 g
  KIDNEY_TOTAL: 1.8 g
  LIVER: 9.1 g
  ALP: 1765 IU/L
  ALT: 39.6 IU/L
  AST: 74.4 IU/L
  BUN: 11.6 mg/dL
  CRE: 0.2 mg/dL
  Ca: 11.1 mg/dL
  Cl: 105.4 meq/L
  DBIL: 0 mg/dL
  GLC: 169 mg/dL
  IP: 8.8 mg/dL
  K: 4.2 meq/L
  LDH: 115.4 IU/L
  Na: 142.2 meq/L
  PL: 153.4 mg/dL
  RALB: 2.5 g/dL
  TBIL: 0.05 mg/dL
  TC: 87.8 mg/dL
  TG: 53.2 mg/dL
  TP: 5.4 g/dL
  gamma-GTP: 1.8 IU/L
[2]
  TERMINAL_BW: 211 g
  APTT: 18.2 s
  Bas: 0.4%
  Eos: 1%
  Fbg: 290.8 mg/dL
  Hb: 13.6 g/dL
  Ht: 40.8%
  Lym: 76.2%
  MCH: 20.7 pg
  MCHC: 33.4%
  MCV: 62.2 fL
  Mono: 2.6%
  Neu: 19.4%
  PT: 14.1 s
  Plat: 119.9 x10_4/uL
  RBC: 656.6 x10_4/ul
  Ret: 7.6%
  WBC: 104.2 x10_2/uL
  KIDNEY_L: 0.9 g
  KIDNEY_R: 1 g
  KIDNEY_TOTAL: 1.9 g
  LIVER: 8.7 g
  ALP: 1471.4 IU/L
  AST: 74.4 IU/L
  BUN: 9.6 mg/dL
  CRE: 0.2 mg/dL
  Ca: 11 mg/dL
  Cl: 106 meq/L
  DBIL: 0 mg/dL
  GLC: 171.6 mg/dL
  IP: 9.3 mg/dL
  K: 4.1 meq/L
  LDH: 73.8 IU/L
  Na: 144 meq/L
  PL: 142 mg/dL
  RALB: 2.5 g/dL
  TBIL: 0.052 mg/dL
  TC: 78.8 mg/dL
  TG: 50 mg/dL
  TP: 5.4 g/dL
  gamma-GTP: 1.4 IU/L
[3]
  TERMINAL_BW: 210.5 g
  APTT: 17.7 s
  Bas: 0.2%
  Eos: 0.8%
  Fbg: 302.8 mg/dL
  Hb: 13.2 g/dL
  Ht: 39.7%
  Lym: 77.4%
  MCH: 21.6 pg
  MCHC: 33.3%
  MCV: 64.9 fL
  Mono: 2.6%
  PT: 13.7 s
  Plat: 116.6 x10_4/uL
  RBC: 611.4 x10_4/ul
  Ret: 8.6%
  WBC: 81.1 x10_2/uL
  KIDNEY_L: 0.9 g
  KIDNEY_R: 0.9 g
  KIDNEY_TOTAL: 1.9 g
  LIVER: 8.4 g
  ALP: 1519.6 IU/L
  ALT: 36.8 IU/L
  AST: 75.4 IU/L
  BUN: 9.2 mg/dL
  CRE: 0.2 mg/dL
  Ca: 10.9 mg/dL
  DBIL: 0.002 mg/dL
  GLC: 163.6 mg/dL
  IP: 9.8 mg/dL
  K: 4 meq/L
  LDH: 75.8 IU/L
  Na: 143.4 meq/L
  PL: 145.6 mg/dL
  RALB: 2.5 g/dL
  TBIL: 0.066 mg/dL
  TC: 81.6 mg/dL
  TG: 44.2 mg/dL
  TP: 5.4 g/dL
  gamma-GTP: 1.2 IU/L
[4]
  TERMINAL_BW: 226.9 g
  APTT: 17.2 s
  Bas: 0%
  Eos: 1%
  Fbg: 296.2 mg/dL
  Hb: 13.3 g/dL
  Ht: 40.1%
  Lym: 82.4%
  MCH: 21.1 pg
  MCHC: 33%
  MCV: 63.7 fL
  Mono: 2.2%
  Neu: 13.6%
  PT: 13.6 s
  Plat: 120.9 x10_4/uL
  RBC: 630.4 x10_4/ul
  Ret: 7.8%
  WBC: 100.3 x10_2/uL
  KIDNEY_L: 1 g
  KIDNEY_R: 1 g
  KIDNEY_TOTAL: 1.9 g
  LIVER: 10.7 g
  ALP: 1883.2 IU/L
  ALT: 37.2 IU/L
  AST: 66.2 IU/L
  BUN: 15.2 mg/dL
  CRE: 0.2 mg/dL
  Ca: 11.1 mg/dL
  Cl: 104.4 meq/L
  DBIL: 0.008 mg/dL
  GLC: 179 mg/dL
  IP: 7.9 mg/dL
  K: 4.2 meq/L
  LDH: 106.8 IU/L
  PL: 161.8 mg/dL
  RALB: 2.6 g/dL
  TBIL: 0.038 mg/dL
  TC: 81.8 mg/dL
  TG: 122.2 mg/dL
  TP: 5.7 g/dL
  gamma-GTP: 1 IU/L
300 mg/kg, 3 h, dose level Low
  TERMINAL_BW: 214.8 g
  APTT: 17.3 s
  Bas: 0.4%
  Eos: 1%
  Hb: 14.3 g/dL
  Ht: 42.8%
  Lym: 73.2%
  MCH: 20.6 pg
  MCHC: 33.3%
  MCV: 62.2 fL
  Mono: 2.6%
  Neu: 22.8%
  PT: 14 s
  Plat: 134.5 x10_4/uL
  RBC: 689.2 x10_4/ul
  Ret: 8.6%
  WBC: 59.5 x10_2/uL
  KIDNEY_L: 1 g
  KIDNEY_R: 1 g
  KIDNEY_TOTAL: 1.9 g
  LIVER: 9.3 g
  ALP: 1454.6 IU/L
  ALT: 38.2 IU/L
  AST: 72 IU/L
  BUN: 8.4 mg/dL
  CRE: 0.2 mg/dL
  Ca: 10.9 mg/dL
  Cl: 101 meq/L
  DBIL: 0 mg/dL
  GLC: 206.6 mg/dL
  IP: 11.3 mg/dL
  K: 3.7 meq/L
  LDH: 77.4 IU/L
  Na: 141.6 meq/L
  PL: 152.4 mg/dL
  RALB: 2.6 g/dL
  TBIL: 0.034 mg/dL
  TC: 83.2 mg/dL
  TG: 78.2 mg/dL
  TP: 5.7 g/dL
  gamma-GTP: 1.4 IU/L
300 mg/kg, 6 h, dose level Low
  TERMINAL_BW: 205.3 g
  APTT: 16.7 s
  Bas: 0%
  Eos: 0.2%
  Fbg: 332.4 mg/dL
  Ht: 43.8%
  Lym: 74%
  MCH: 21.2 pg
  MCHC: 33.7%
  MCV: 62.9 fL
  Mono: 2.4%
  PT: 14.2 s
  Plat: 124.8 x10_4/uL
  RBC: 696 x10_4/ul
  Ret: 8.3%
  WBC: 66.9 x10_2/uL
  KIDNEY_L: 1 g
  KIDNEY_R: 0.9 g
  KIDNEY_TOTAL: 1.9 g
  LIVER: 9.1 g
  ALP: 1428.2 IU/L
  ALT: 39 IU/L
  AST: 71.2 IU/L
  BUN: 9.6 mg/dL
  CRE: 0.1 mg/dL
  Ca: 11.1 mg/dL
  Cl: 101.2 meq/L
  DBIL: 0 mg/dL
  GLC: 198.4 mg/dL
  IP: 10.1 mg/dL
  K: 3.7 meq/L
  LDH: 80.4 IU/L
  Na: 140.4 meq/L
  PL: 152.6 mg/dL
  RALB: 2.7 g/dL
  TBIL: 0.046 mg/dL
  TC: 94.2 mg/dL
  TG: 35.6 mg/dL
  TP: 5.8 g/dL
  gamma-GTP: 1 IU/L
300 mg/kg, 9 h, dose level Low
  TERMINAL_BW: 204.1 g
  APTT: 17.8 s
  Bas: 0%
  Eos: 0.6%
  Fbg: 313.2 mg/dL
  Hb: 14.4 g/dL
  Ht: 42.3%
  Lym: 72.2%
  MCH: 21 pg
  MCV: 61.6 fL
  Mono: 4.2%
  Neu: 22.2%
  PT: 13.9 s
  Plat: 119.6 x10_4/uL
  RBC: 686.6 x10_4/ul
  Ret: 8.4%
  WBC: 60.7 x10_2/uL
  KIDNEY_L: 0.9 g
  KIDNEY_R: 0.9 g
  KIDNEY_TOTAL: 1.8 g
  LIVER: 8.5 g
  ALP: 1326.6 IU/L
  ALT: 33.4 IU/L
  AST: 65.4 IU/L
  BUN: 11.6 mg/dL
  CRE: 0.2 mg/dL
  Ca: 11.1 mg/dL
  Cl: 99 meq/L
  DBIL: 0.008 mg/dL
  GLC: 210.8 mg/dL
  IP: 8.8 mg/dL
  K: 4 meq/L
  LDH: 93 IU/L
  Na: 139 meq/L
  PL: 163.2 mg/dL
  RALB: 2.7 g/dL
  TBIL: 0.062 mg/dL
  TC: 94.8 mg/dL
  TG: 50.6 mg/dL
  TP: 5.8 g/dL
  gamma-GTP: 1.4 IU/L
[5]
  TERMINAL_BW: 210.4 g
  APTT: 16.7 s
  Bas: 0%
  Eos: 1%
  Fbg: 297.4 mg/dL
  Hb: 13.9 g/dL
  Ht: 41.5%
  Lym: 77.4%
  MCH: 20.7 pg
  MCHC: 33.4%
  MCV: 62.2 fL
  Mono: 2.6%
  Neu: 18.6%
  PT: 14.1 s
  Plat: 126.5 x10_4/uL
  RBC: 668.8 x10_4/ul
  Ret: 7.5%
  WBC: 86.4 x10_2/uL
  KIDNEY_L: 1 g
  KIDNEY_R: 1 g
  KIDNEY_TOTAL: 1.9 g
  LIVER: 9.2 g
  ALP: 1966 IU/L
  ALT: 44.4 IU/L
  AST: 83 IU/L
  BUN: 14.4 mg/dL
  CRE: 0.2 mg/dL
  Ca: 11.1 mg/dL
  Cl: 105 meq/L
  DBIL: 0.01 mg/dL
  GLC: 168.6 mg/dL
  IP: 7.7 mg/dL
  K: 4.4 meq/L
  LDH: 149.6 IU/L
  Na: 144 meq/L
  PL: 166 mg/dL
  RALB: 2.6 g/dL
  TBIL: 0.05 mg/dL
  TC: 87.8 mg/dL
  TG: 84.4 mg/dL

— ChEMBL document CHEMBL3885861, “Open TG-GATES”
